Test results from the supplement of paper PMC10307832.

Experiments:
Assay in all cases: relative viability (nuclei count vs DMSO), 5 days (fraction); higher = more cells survive
A-427 = test system: A-427
How it was run: (§1)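 Lung cancer cell lines in 1536-well plates were dosed by pin tool the day after seeding, either with one drug alone or with a fixed anchor-drug dose plus five library-drug doses (not always all listed) in √10 steps. After 5 days, cells were fixed and their nuclei stained in one step (final 0.05% Triton X-100, 1% formaldehyde, 1 ug/ml Hoechst), then counted on 4× images. Relative viability is the nuclei count in treated wells divided by that in vehicle wells. Values are medians of duplicate plates.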

BEN = test system: BEN
How it was run: as §1

ChaGo-K-1 = test system: ChaGo-K-1
How it was run: as §1

EKVX = test system: EKVX
How it was run: as §1

LK-2 = test system: LK-2
How it was run: as §1

NCI-H1563 = test system: NCI-H1563
How it was run: as §1

NCI-H1650 = test system: NCI-H1650
How it was run: as §1

NCI-H1755 = test system: NCI-H1755
How it was run: as §1

NCI-H2085 = test system: NCI-H2085
How it was run: as §1

NCI-H2228 = test system: NCI-H2228
How it was run: as §1

NCI-H2347 = test system: NCI-H2347
How it was run: as §1

NCI-H3122 = test system: NCI-H3122
How it was run: as §1

NCI-H322M = test system: NCI-H322M
How it was run: as §1

NCI-H358 = test system: NCI-H358
How it was run: as §1

NCI-H460 = test system: NCI-H460
How it was run: as §1

NCI-H520 = test system: NCI-H520
How it was run: as §1

NCI-H596 = test system: NCI-H596
How it was run: as §1

NCI-H650 = test system: NCI-H650
How it was run: as §1

NCI-H727 = test system: NCI-H727
How it was run: as §1

NCI-H838 = test system: NCI-H838
How it was run: as §1

SW 1573 = test system: SW 1573
How it was run: as §1

SW 900 = test system: SW 900
How it was run: as §1

COCC1(CO)C(=O)C2CCN1CC2 (centres undefined) [PRIMA-1MET] + COc1cc2c(Oc3ccc(NC(=O)C4(C(=O)Nc5ccc(F)cc5)CC4)cc3F)ccnc2cc1OCCCN1CCOCC1 [Foretinib] (partner 0.25 µM)
relative viability (A-427; first compound 0.2 µM): 0.902
relative viability (A-427; first compound 0.6325 µM): 0.837
relative viability (A-427; first compound 2 µM): 0.895
relative viability (A-427; first compound 6.325 µM): 0.983
relative viability (A-427; first compound 20 µM): 0.953
relative viability (BEN; first compound 0.2 µM): 0.653
relative viability (BEN; first compound 0.6325 µM): 0.586
relative viability (BEN; first compound 6.325 µM): 0.741
relative viability (BEN; first compound 20 µM): 0.954
relative viability (ChaGo-K-1; first compound 0.2 µM): 1.03
relative viability (ChaGo-K-1; first compound 0.6325 µM): 0.838
relative viability (ChaGo-K-1; first compound 2 µM): 0.911
relative viability (ChaGo-K-1; first compound 6.325 µM): 1.01
relative viability (ChaGo-K-1; first compound 20 µM): 0.859
relative viability (EKVX; first compound 0.2 µM): 0.988
relative viability (EKVX; first compound 0.6325 µM): 0.518
relative viability (EKVX; first compound 6.325 µM): 1.1
relative viability (EKVX; first compound 20 µM): 0.843
relative viability (LK-2; first compound 0.2 µM): 1.4
relative viability (LK-2; first compound 0.6325 µM): 1.16
relative viability (LK-2; first compound 2 µM): 0.567
relative viability (LK-2; first compound 6.325 µM): 0.752
relative viability (LK-2; first compound 20 µM): 0.147
relative viability (NCI-H1563; first compound 0.2 µM): 1.05
relative viability (NCI-H1563; first compound 0.6325 µM): 1
relative viability (NCI-H1563; first compound 2 µM): 0.838
relative viability (NCI-H1563; first compound 6.325 µM): 0.911
relative viability (NCI-H1563; first compound 20 µM): 0.288
relative viability (NCI-H1650; first compound 0.2 µM): 1.45
relative viability (NCI-H1650; first compound 0.6325 µM): 1.03
relative viability (NCI-H1650; first compound 2 µM): 1.1
relative viability (NCI-H1650; first compound 6.325 µM): 0.924
relative viability (NCI-H1650; first compound 20 µM): 0.364
relative viability (NCI-H1755; first compound 0.2 µM): 1.02
relative viability (NCI-H1755; first compound 0.6325 µM): 0.932
relative viability (NCI-H1755; first compound 2 µM): 0.809
relative viability (NCI-H1755; first compound 6.325 µM): 0.907
relative viability (NCI-H1755; first compound 20 µM): 0.867
relative viability (NCI-H2085; first compound 0.2 µM): 1.01
relative viability (NCI-H2085; first compound 0.6325 µM): 1.01
relative viability (NCI-H2085; first compound 2 µM): 0.772
relative viability (NCI-H2085; first compound 6.325 µM): 0.53
relative viability (NCI-H2085; first compound 20 µM): 0.122
relative viability (NCI-H2228; first compound 0.2 µM): 0.973
relative viability (NCI-H2228; first compound 0.6325 µM): 0.938
relative viability (NCI-H2228; first compound 2 µM): 0.87
relative viability (NCI-H2228; first compound 6.325 µM): 0.952
relative viability (NCI-H2228; first compound 20 µM): 0.0309
relative viability (NCI-H2347; first compound 0.2 µM): 0.876
relative viability (NCI-H2347; first compound 0.6325 µM): 0.724
relative viability (NCI-H2347; first compound 6.325 µM): 1.1
relative viability (NCI-H2347; first compound 20 µM): 0.814
relative viability (NCI-H3122; first compound 0.2 µM): 0.739
relative viability (NCI-H3122; first compound 0.6325 µM): 0.762
relative viability (NCI-H3122; first compound 2 µM): 0.963
relative viability (NCI-H3122; first compound 6.325 µM): 0.984
relative viability (NCI-H3122; first compound 20 µM): 0.882
relative viability (NCI-H322M; first compound 0.2 µM): 1.14
relative viability (NCI-H322M; first compound 0.6325 µM): 0.911
relative viability (NCI-H322M; first compound 6.325 µM): 1.18
relative viability (NCI-H322M; first compound 20 µM): 0.931
relative viability (NCI-H358; first compound 0.2 µM): 0.881
relative viability (NCI-H358; first compound 2 µM): 0.592
relative viability (NCI-H358; first compound 6.325 µM): 0.634
relative viability (NCI-H358; first compound 20 µM): 0.0429
relative viability (NCI-H460; first compound 0.2 µM): 1.08
relative viability (NCI-H460; first compound 0.6325 µM): 0.949
relative viability (NCI-H460; first compound 2 µM): 0.963
relative viability (NCI-H460; first compound 6.325 µM): 0.944
relative viability (NCI-H460; first compound 20 µM): 0.359
relative viability (NCI-H520; first compound 0.2 µM): 0.794
relative viability (NCI-H520; first compound 0.6325 µM): 0.62
relative viability (NCI-H520; first compound 2 µM): 0.669
relative viability (NCI-H520; first compound 6.325 µM): 0.715
relative viability (NCI-H520; first compound 20 µM): 0.0989
relative viability (NCI-H596; first compound 0.2 µM): 0.91
relative viability (NCI-H596; first compound 0.6325 µM): 0.924
relative viability (NCI-H596; first compound 2 µM): 0.697
relative viability (NCI-H596; first compound 6.325 µM): 0.318
relative viability (NCI-H596; first compound 20 µM): 0.0971
relative viability (NCI-H650; first compound 0.2 µM): 1.34
relative viability (NCI-H650; first compound 2 µM): 0.917
relative viability (NCI-H650; first compound 6.325 µM): 1.1
relative viability (NCI-H650; first compound 20 µM): 0.644
relative viability (NCI-H727; first compound 0.2 µM): 0.636
relative viability (NCI-H727; first compound 0.6325 µM): 0.674
relative viability (NCI-H727; first compound 2 µM): 0.782
relative viability (NCI-H727; first compound 6.325 µM): 1.03
relative viability (NCI-H727; first compound 20 µM): 0.44
relative viability (NCI-H838; first compound 0.2 µM): 1.23
relative viability (NCI-H838; first compound 0.6325 µM): 0.822
relative viability (NCI-H838; first compound 2 µM): 1.02
relative viability (NCI-H838; first compound 6.325 µM): 1.07
relative viability (NCI-H838; first compound 20 µM): 0.683
relative viability (SW 1573; first compound 0.2 µM): 1.36
relative viability (SW 1573; first compound 0.6325 µM): 0.404
relative viability (SW 1573; first compound 2 µM): 0.777
relative viability (SW 1573; first compound 6.325 µM): 0.485
relative viability (SW 1573; first compound 20 µM): 0.0333
relative viability (SW 900; first compound 0.2 µM): 0.928
relative viability (SW 900; first compound 0.6325 µM): 1.13
relative viability (SW 900; first compound 2 µM): 0.699
relative viability (SW 900; first compound 6.325 µM): 0.451
relative viability (SW 900; first compound 20 µM): 0.051
